Reference: paper PMC4286194 (Biochemical Journal, 2015)

Legend:
[1] = target: MNK2 (Homo sapiens, UniProt Q9HBH9); assay: Kinase profiling; format: biochemical
[2] = target: CLK2 (Homo sapiens, UniProt P49760); assay: Kinase profiling; format: biochemical
[3] = target: HIPK3 (Homo sapiens, UniProt Q9H422); assay: Kinase profiling; format: biochemical
[4] = test system: RAW264.7 macrophages expressing HA-SIK2-WT; assay: IL-10 and Nurr77 mRNA in macrophages expressing wild-type SIK2; format: cell-based; details: cells expressing wild-type SIK2; drug 1 h, LPS 1 h
Experimental: Primary macrophages were generated by differentiating bone marrow from 6- to 12-week-old C57BL/6 mice for 7 days in Dulbecco's modified Eagle's medium (DMEM) supplemented with 5 ng/ml recombinant M-CSF (R&D systems), 2 mM glutamine, 10% FBS, penicillin and streptomycin. Bone-marrow-derived macrophages were differentiated on non-tissue-culture-treated plastic, harvested and replated at a density of 100000 cells/cm^2 per 0.1 ml on tissue culture-treated plastic in fresh medium before stimulation on day 8. RAW264.7 cells were cultured in DMEM containing 10% FBS, 2 mM glutamine and penicillin and streptomycin. […] Cells were treated for 1 h with or without inhibitors and then stimulated for up to 24 h with either 1 μg/ml Pam3CSK4 or 100 ng/ml LPS.
mRNA was extracted from cells using the MicroElute Total RNA kit following the manufacturers’ instructions (Omega Bio-Tek). cDNA was generated from 0.5 μg of total RNA using the iScript cDNA synthesis kit and quantified by quantitative real-time PCR (qPCR) using the SsoFast EvaGreen Supermix on a CFX384 real-time system (Bio-Rad Laboratories). The relative expression of each gene was calculated from CT values using the Pfaffl method and was normalized against the mRNA levels of housekeeping genes including 18S RNA and GAPDH.

[5] = target: TTBK1 (Homo sapiens, UniProt Q5TCY1); assay: Kinase profiling; format: biochemical
Sequence of TTBK1 (Q5TCY1 whole entry): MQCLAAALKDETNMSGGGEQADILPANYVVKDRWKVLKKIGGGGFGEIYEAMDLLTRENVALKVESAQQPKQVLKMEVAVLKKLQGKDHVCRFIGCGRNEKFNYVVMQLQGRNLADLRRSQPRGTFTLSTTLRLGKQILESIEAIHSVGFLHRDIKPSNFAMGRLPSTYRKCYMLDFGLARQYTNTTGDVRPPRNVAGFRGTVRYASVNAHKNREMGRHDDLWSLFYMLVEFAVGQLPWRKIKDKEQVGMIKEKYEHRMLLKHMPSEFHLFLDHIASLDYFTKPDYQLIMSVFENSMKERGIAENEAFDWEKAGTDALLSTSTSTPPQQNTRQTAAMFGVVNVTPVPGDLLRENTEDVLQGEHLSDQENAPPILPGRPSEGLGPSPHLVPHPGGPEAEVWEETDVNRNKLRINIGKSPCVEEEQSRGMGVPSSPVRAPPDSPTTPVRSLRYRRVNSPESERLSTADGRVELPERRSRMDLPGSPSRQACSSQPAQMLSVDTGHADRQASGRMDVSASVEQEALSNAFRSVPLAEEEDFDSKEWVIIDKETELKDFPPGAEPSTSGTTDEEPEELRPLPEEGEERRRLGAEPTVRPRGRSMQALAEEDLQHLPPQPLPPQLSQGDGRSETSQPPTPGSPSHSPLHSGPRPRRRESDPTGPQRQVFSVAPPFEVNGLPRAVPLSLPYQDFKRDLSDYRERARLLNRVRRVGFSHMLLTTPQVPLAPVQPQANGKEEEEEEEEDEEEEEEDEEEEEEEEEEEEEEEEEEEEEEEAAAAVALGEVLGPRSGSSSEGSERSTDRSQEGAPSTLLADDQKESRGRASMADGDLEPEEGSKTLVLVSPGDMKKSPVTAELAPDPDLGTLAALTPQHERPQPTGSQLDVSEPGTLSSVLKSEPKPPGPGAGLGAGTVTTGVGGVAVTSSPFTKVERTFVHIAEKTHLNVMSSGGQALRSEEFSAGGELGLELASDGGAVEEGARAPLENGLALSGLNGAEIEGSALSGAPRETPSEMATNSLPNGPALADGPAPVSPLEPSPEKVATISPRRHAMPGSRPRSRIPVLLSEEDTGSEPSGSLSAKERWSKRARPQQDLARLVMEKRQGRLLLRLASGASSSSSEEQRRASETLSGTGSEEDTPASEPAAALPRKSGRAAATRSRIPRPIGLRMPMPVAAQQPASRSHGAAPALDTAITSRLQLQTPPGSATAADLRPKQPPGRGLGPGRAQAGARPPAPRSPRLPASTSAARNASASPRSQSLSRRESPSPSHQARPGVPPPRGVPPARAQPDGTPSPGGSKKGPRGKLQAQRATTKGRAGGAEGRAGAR

[6] = test system: Bone-marrow-derived macrophages; assay: Pro-inflammatory cytokine secretion (BIOPLEX); format: cell-based, mouse; details: 3 μM bosutinib or 0.3 μM dasatinib 1 h, LPS 8 h
Experimental: The concentration of TNFα, IL-6, IL-10 and IL-12p40 in cell-free culture supernatants were measured using the Bio-Plex Pro Assay system (Bio-Rad).

[7] = target: T1, ULK2 (Homo sapiens, UniProt Q8IYT8); assay: Kinase profiling; format: biochemical
T1 sequence (Q8IYT8 1-1036): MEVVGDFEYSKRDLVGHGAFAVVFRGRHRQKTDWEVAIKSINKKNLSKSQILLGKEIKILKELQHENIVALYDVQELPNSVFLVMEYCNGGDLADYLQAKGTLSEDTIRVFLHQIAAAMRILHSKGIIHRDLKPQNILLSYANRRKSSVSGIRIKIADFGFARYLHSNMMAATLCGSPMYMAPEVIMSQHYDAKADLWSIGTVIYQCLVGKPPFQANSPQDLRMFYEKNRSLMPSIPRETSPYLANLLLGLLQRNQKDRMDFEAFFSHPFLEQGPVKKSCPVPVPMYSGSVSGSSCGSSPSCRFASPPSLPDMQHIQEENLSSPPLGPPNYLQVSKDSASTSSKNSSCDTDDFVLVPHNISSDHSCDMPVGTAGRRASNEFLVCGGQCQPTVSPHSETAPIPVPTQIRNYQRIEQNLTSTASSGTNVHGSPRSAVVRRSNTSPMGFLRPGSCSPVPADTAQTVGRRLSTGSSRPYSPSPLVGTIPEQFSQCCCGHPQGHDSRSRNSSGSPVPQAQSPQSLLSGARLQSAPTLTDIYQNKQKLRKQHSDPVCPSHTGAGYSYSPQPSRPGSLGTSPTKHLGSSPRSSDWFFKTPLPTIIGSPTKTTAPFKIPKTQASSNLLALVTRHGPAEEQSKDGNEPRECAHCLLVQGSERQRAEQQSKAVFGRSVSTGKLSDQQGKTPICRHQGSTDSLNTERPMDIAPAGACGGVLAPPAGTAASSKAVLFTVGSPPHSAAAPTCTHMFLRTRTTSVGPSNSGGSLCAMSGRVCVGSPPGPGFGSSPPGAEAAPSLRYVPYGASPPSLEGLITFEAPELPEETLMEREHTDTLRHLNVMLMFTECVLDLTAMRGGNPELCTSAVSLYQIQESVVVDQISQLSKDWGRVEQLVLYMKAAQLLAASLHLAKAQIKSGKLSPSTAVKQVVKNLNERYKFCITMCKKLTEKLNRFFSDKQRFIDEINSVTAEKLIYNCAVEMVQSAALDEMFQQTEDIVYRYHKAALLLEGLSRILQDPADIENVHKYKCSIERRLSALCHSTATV

[8] = target: T2, BRSK2 (Homo sapiens, UniProt Q8IWQ3); assay: Kinase profiling; format: biochemical
T2 sequence (Q8IWQ3 1-736): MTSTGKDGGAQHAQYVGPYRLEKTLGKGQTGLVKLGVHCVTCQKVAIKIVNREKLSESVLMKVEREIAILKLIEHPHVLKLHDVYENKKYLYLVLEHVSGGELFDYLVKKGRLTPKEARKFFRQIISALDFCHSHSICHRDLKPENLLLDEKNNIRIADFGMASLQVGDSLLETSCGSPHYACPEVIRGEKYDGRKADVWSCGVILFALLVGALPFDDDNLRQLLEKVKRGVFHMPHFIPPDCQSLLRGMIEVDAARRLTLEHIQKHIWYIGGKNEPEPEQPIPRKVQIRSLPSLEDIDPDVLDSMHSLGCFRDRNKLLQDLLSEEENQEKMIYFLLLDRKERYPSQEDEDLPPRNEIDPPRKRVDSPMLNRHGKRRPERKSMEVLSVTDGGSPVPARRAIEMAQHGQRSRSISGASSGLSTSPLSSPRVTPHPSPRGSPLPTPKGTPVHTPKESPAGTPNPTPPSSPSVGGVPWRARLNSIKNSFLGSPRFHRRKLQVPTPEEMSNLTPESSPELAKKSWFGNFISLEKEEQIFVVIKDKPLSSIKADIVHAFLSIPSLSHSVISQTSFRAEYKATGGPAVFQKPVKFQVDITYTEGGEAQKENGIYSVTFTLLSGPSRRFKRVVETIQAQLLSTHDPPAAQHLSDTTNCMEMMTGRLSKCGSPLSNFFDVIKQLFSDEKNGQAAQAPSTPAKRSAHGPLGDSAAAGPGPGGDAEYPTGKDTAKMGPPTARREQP

Sequence of HIPK3 (Q9H422 whole entry): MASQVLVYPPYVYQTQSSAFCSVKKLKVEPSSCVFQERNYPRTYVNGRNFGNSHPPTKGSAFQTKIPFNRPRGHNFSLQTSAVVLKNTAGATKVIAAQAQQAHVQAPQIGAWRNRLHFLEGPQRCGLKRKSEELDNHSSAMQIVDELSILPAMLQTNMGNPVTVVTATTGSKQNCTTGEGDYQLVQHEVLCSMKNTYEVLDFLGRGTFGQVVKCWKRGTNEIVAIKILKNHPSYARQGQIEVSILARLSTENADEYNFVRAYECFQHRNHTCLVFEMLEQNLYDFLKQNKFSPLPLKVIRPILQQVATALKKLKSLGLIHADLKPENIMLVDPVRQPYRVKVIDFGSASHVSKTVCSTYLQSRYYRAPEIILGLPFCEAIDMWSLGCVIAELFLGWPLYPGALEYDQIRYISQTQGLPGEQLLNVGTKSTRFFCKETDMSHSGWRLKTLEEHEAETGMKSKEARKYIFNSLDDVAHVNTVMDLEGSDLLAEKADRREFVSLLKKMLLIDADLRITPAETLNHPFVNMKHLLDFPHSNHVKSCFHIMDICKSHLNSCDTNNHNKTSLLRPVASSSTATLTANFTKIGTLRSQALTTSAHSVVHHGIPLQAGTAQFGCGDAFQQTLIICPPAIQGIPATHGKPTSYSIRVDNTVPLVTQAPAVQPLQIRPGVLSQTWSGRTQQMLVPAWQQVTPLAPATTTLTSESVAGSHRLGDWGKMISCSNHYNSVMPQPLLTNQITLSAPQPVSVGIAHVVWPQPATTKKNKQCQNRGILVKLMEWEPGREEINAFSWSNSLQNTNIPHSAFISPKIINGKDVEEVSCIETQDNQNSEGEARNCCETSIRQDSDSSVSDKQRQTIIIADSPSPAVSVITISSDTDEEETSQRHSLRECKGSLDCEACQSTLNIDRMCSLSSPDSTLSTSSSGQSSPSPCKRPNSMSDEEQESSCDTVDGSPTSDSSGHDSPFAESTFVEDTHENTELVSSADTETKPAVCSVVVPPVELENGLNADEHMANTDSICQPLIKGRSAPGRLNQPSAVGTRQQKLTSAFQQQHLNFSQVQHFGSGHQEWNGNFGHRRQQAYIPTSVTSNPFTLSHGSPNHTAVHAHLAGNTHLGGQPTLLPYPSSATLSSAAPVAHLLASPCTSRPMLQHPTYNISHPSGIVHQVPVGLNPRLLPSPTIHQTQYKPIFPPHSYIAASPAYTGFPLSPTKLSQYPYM
Sequence of MNK2 (Q9HBH9 whole entry): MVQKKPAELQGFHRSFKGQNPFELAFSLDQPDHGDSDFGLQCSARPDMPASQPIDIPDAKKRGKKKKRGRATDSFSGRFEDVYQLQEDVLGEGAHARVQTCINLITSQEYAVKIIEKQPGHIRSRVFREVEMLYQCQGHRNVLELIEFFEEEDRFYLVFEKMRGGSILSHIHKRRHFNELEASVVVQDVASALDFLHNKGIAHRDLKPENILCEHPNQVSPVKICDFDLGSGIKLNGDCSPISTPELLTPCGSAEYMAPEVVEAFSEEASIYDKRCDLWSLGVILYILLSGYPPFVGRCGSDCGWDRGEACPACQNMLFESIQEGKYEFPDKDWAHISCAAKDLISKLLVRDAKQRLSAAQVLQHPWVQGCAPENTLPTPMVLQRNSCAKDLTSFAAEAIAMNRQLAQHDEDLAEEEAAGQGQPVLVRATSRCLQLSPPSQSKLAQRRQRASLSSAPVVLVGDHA
Sequence of CLK2 (P49760 whole entry): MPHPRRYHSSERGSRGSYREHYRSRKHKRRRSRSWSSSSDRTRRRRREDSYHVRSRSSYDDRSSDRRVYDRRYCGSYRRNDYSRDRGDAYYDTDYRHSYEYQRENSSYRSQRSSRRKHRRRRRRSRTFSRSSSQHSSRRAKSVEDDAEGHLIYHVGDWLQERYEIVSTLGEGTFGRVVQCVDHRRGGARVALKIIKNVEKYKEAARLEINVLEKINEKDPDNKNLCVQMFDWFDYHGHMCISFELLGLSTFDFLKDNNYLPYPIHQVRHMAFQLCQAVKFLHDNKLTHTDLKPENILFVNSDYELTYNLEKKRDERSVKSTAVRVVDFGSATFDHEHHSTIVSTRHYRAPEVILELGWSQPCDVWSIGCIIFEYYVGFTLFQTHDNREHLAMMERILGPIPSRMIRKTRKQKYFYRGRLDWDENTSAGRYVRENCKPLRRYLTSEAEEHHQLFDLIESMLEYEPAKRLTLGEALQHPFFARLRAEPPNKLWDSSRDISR

| Compound | remaining activity at 0.1 µM [1] [%] | remaining activity at 1 µM [1] [%] | remaining activity at 0.1 µM [2] [%] | remaining activity at 1 µM [2] [%] | remaining activity at 1 µM [3] [%] | LPS-stimulated CREB-dependent gene transcription including IL-10 and Nurr77 [4] | remaining activity at 0.1 µM [5] [%] | remaining activity at 1 µM [5] [%] | Production of IL-6, IL-12p40 and TNFα [6] | remaining activity at 0.1 µM [7] [%] | remaining activity at 1 µM [7] [%] | remaining activity at 0.1 µM [8] [%] | remaining activity at 1 µM [8] [%] | remaining activity at 0.1 µM ([3]; 0.1 µM) [%] |
| --- | --- | --- | --- | --- | --- | --- | --- | --- | --- | --- | --- | --- | --- | --- |
| COc1cc(Nc2c(C#N)cnc3cc(OCCCN4CCN(C)CC4)c(OC)cc23)c(Cl)cc1Cl [Bosutinib, bosutinib] | 87 ± 6 | 100 ± 9 | 75 ± 9 | 23 | 66 ± 5 | strongly potentiate | 95 ± 2 | 114 ± 3 | inhibited | 78 ± 10 | 37 ± 1 | 107 ± 12 | 120 ± 4 | – |
| Cc1nc(Nc2ncc(C(=O)Nc3c(C)cccc3Cl)s2)cc(N2CCN(CCO)CC2)n1 [Dasatinib] | 97 ± 8 | 106 ± 2 | 120 ± 6 | 121 ± 6 | 113 ± 7 | strongly potentiate | 112 ± 8 | 112 ± 1 | inhibited | 101 ± 3 | 91 ± 3 | 102 ± 14 | 108 ± 13 | 102 ± 3 |
